Experimental data from patent US9694027B2, “Pyrazole derivative and use thereof for medical purposes” (KISSEI PHARMACEUTICAL CO. LTD., priority 2012, dated 2017).

How the values were obtained:
Assay type in all cases: in vivo, human
healthy adult males [1] = test: Multiple-dose study in healthy adult males (Example 4); details: for Daily frequency of bowel movement after the administration, Mean: once daily Days 1 and 13, 3 times daily Days 3 to 12, daily mean during fifteen days, 8 subjects, Placebo 1.0; for Number of subject with gastrointestinal disorders: Abdominal pain / Number of subject with gastrointestinal disorders: Diarrhea: of 8 subjects; for Number of subject with gastrointestinal disorders: Abdominal pain: Placebo 0; for Number of subject with gastrointestinal disorders: Diarrhea: Placebo 3
Method: Compound 2 at a dose of 2, 5, 10 or 20 mg (free drug equivalent), a placebo, or miglitol at a dose of 50 mg was repetitively administered orally once daily just immediately before breakfast on administration Days 1 and 13, and 3 times daily just immediately before every meal on administration Days 3 to 12 to healthy adult males. For the administration of Compound 2, tablets containing 1, 5 or 10 mg in free drug equivalent were used. The test period was set between administration Day 1 and Day 15. Frequencies of bowel movements were checked during consultation by a doctor, and the adverse events (gastrointestinal disorders) were defined when an abnormal finding (diarrhea or loose stool) was seen based on the stool form and the finding. In this regard, the frequencies of bowel movements in Table 8 show the daily means during fifteen days (time/day).

[2] = tested on: patients with chronic constipation; test: Clinical trial in patients with chronic constipation (Example 5)
Method: After observation for 2 weeks, Compound 2 or a placebo was administered orally after eating to 79 patients with chronic constipation for 4 weeks. Patients who had steady symptoms for long periods were selected as constipation patients using diagnostic criteria of functional constipation based on Rome III as a reference.
2 mg TID group: administration of 2 mg of Compound 2, 3 times daily • (after breakfast, after lunch, after dinner)
20 mg QD group: administration of 20 mg of Compound 2, 1 time daily • (after breakfast)
20 mg BID group: administration of 20 mg of Compound 2, 2 times daily • (after breakfast, after dinner)
20 mg TID group: administration of 20 mg of Compound 2, 3 times daily • (after breakfast, after lunch, after dinner)
For the administration of Compound 2, tablets containing 1 or 10 mg in free drug equivalent of Compound 2 were used.
If the subjects complained that further administration of 2 tablets each time was difficult due to the increase in the frequency of spontaneous bowel movements or softened stool form causing problems in daily life, the dose was switched to 1 tablet each time in the week 1 visit or week 2 visit by the doctor and the administration was continued.

healthy adult males [3] = test: Single-dose study in healthy adult males (Example 3); details: for Number of subject with gastrointestinal disorders: Abdominal bloating / Number of subject with gastrointestinal disorders: Abdominal pain / Number of subject with gastrointestinal disorders: Diarrhea: of 6 subjects; for Frequency of bowel movement after the administration, Mean: 6 subjects, 48 hours, Placebo 1.7
Method: Compound 2 at a single dose of 2, 5, 10, 20, 40, 80 or 160 mg (free drug equivalent), or placebo was orally administered just immediately before breakfast to healthy adult males. For the administration of Compound 2, tablets containing 1, 5 or 10 mg in free drug equivalent were used. The test period was set between the administration and the discharge 48 hours after the administration. Frequencies of bowel movements were checked during consultation by a doctor, and the adverse events (gastrointestinal disorders) were defined when an abnormal finding (diarrhea or loose stool) was seen based on the stool form and the finding.

Number of subject with gastrointestinal disorders: Abdominal pain (healthy adult males [1]; multiple dose 2 mg): 0
Number of subject with gastrointestinal disorders: Diarrhea (healthy adult males [1]; multiple dose 2 mg): 6
Number of subject with gastrointestinal disorders: Abdominal pain (healthy adult males [1]; multiple dose 5 mg): 0
Number of subject with gastrointestinal disorders: Diarrhea (healthy adult males [1]; multiple dose 5 mg): 5
Number of subject with gastrointestinal disorders: Abdominal pain (healthy adult males [1]; multiple dose 10 mg): 0
Number of subject with gastrointestinal disorders: Diarrhea (healthy adult males [1]; multiple dose 10 mg): 5
Number of subject with gastrointestinal disorders: Abdominal pain (healthy adult males [1]; multiple dose 20 mg): 1
Number of subject with gastrointestinal disorders: Diarrhea (healthy adult males [1]; multiple dose 20 mg): 6
Number of subject with gastrointestinal disorders: Abdominal bloating (healthy adult males [3]; single dose 2 mg): 0
Number of subject with gastrointestinal disorders: Abdominal pain (healthy adult males [3]; single dose 2 mg): 0
Number of subject with gastrointestinal disorders: Diarrhea (healthy adult males [3]; single dose 2 mg): 1
Number of subject with gastrointestinal disorders: Abdominal bloating (healthy adult males [3]; single dose 5 mg): 0
Number of subject with gastrointestinal disorders: Abdominal pain (healthy adult males [3]; single dose 5 mg): 0
Number of subject with gastrointestinal disorders: Diarrhea (healthy adult males [3]; single dose 5 mg): 0
Number of subject with gastrointestinal disorders: Abdominal bloating (healthy adult males [3]; single dose 10 mg): 0
Number of subject with gastrointestinal disorders: Abdominal pain (healthy adult males [3]; single dose 10 mg): 0
Number of subject with gastrointestinal disorders: Diarrhea (healthy adult males [3]; single dose 10 mg): 2
Number of subject with gastrointestinal disorders: Abdominal bloating (healthy adult males [3]; single dose 20 mg): 0
Number of subject with gastrointestinal disorders: Abdominal pain (healthy adult males [3]; single dose 20 mg): 0
Number of subject with gastrointestinal disorders: Diarrhea (healthy adult males [3]; single dose 20 mg): 2
Number of subject with gastrointestinal disorders: Abdominal bloating (healthy adult males [3]; single dose 40 mg): 0
Number of subject with gastrointestinal disorders: Abdominal pain (healthy adult males [3]; single dose 40 mg): 0
Number of subject with gastrointestinal disorders: Diarrhea (healthy adult males [3]; single dose 40 mg): 2
Number of subject with gastrointestinal disorders: Abdominal bloating (healthy adult males [3]; single dose 80 mg): 2
Number of subject with gastrointestinal disorders: Abdominal pain (healthy adult males [3]; single dose 80 mg): 4
Number of subject with gastrointestinal disorders: Diarrhea (healthy adult males [3]; single dose 80 mg): 5
Number of subject with gastrointestinal disorders: Abdominal bloating (healthy adult males [3]; single dose 160 mg): 3
Number of subject with gastrointestinal disorders: Abdominal pain (healthy adult males [3]; single dose 160 mg): 3
Number of subject with gastrointestinal disorders: Diarrhea (healthy adult males [3]; single dose 160 mg): 6
Severity of gastrointestinal disorders (abdominal bloating, abdominal pain, diarrhea) (healthy adult males [3]; single dose 2-160 mg): mild in all the cases
Structure (SMILES): Cc1cc(OCCCNCC(C)(C)C(N)=O)ccc1Cc1c(O[C@@H]2O[C@H](CO)[C@@H](O)[C@H](O)[C@H]2O)n[nH]c1C(C)C.Cc1cc(OCCCNCC(C)(C)C(N)=O)ccc1Cc1c(O[C@@H]2O[C@H](CO)[C@@H](O)[C@H](O)[C@H]2O)n[nH]c1C(C)C.O=C(O)CCCCCCCCC(=O)O [Compound 2, bis[3-(3-{4-[3-(β-D-glucopyranosyloxy)-5-isopropyl-1H-pyrazol-4-ylmethyl]-3-methylphenoxy}propylamino)-2,2-dimethylpropionamide]monosebacate]
Daily frequency of bowel movement after the administration, Mean (healthy adult males [1]; 2 mg): 1.4 time/day
Daily frequency of bowel movement after the administration, Mean (healthy adult males [1]; 5 mg): 1.1 time/day
Daily frequency of bowel movement after the administration, Mean (healthy adult males [1]; 10 mg): 2.0 time/day
Daily frequency of bowel movement after the administration, Mean (healthy adult males [1]; 20 mg): 1.7 time/day
Subjects with hypoglycemia ([2]; all groups administered, 4 weeks): no subjects with hypoglycemia were reported
Frequency of spontaneous bowel movements per week ([2]; subject 1, 2 mg TID, administration week 1, observation period 1.1): 7.0 time/week
Bristol Stool Form Scale ([2]; subject 1, 2 mg TID, administration week 1, observation period 1.5): 3.7 mean/week
Frequency of spontaneous bowel movements per week ([2]; subject 1, 2 mg TID, administration week 2, observation period 1.1): 7.0 time/week
Bristol Stool Form Scale ([2]; subject 1, 2 mg TID, administration week 2, observation period 1.5): 3.7 mean/week
Frequency of spontaneous bowel movements per week ([2]; subject 1, 2 mg TID, administration week 3, observation period 1.1): 11.0 time/week
Bristol Stool Form Scale ([2]; subject 1, 2 mg TID, administration week 3, observation period 1.5): 4.1 mean/week
Frequency of spontaneous bowel movements per week ([2]; subject 1, 2 mg TID, administration week 4, observation period 1.1): 10.5 time/week
Bristol Stool Form Scale ([2]; subject 1, 2 mg TID, administration week 4, observation period 1.5): 3.8 mean/week
Frequency of spontaneous bowel movements per week ([2]; subject 2, 20 mg QD, administration week 1, observation period 1.8): 12.0 time/week
Bristol Stool Form Scale ([2]; subject 2, 20 mg QD, administration week 1, observation period 3.0): 4.6 mean/week
Frequency of spontaneous bowel movements per week ([2]; subject 2, 20 mg QD, administration week 2, observation period 1.8): 13.0 time/week
Bristol Stool Form Scale ([2]; subject 2, 20 mg QD, administration week 2, observation period 3.0): 4.0 mean/week
Frequency of spontaneous bowel movements per week ([2]; subject 2, 20 mg QD, administration week 3, observation period 1.8): 8.0 time/week
Bristol Stool Form Scale ([2]; subject 2, 20 mg QD, administration week 3, observation period 3.0): 3.4 mean/week
Bristol Stool Form Scale ([2]; subject 3, 20 mg BID switched to 10 mg 2 times daily after 1 week, administration week 2, observation period 2.0): 4.0 mean/week
Frequency of spontaneous bowel movements per week ([2]; subject 3, 20 mg BID switched to 10 mg 2 times daily after 1 week, administration week 2, observation period 2.2): 6.0 time/week
Bristol Stool Form Scale ([2]; subject 3, 20 mg BID switched to 10 mg 2 times daily after 1 week, administration week 3, observation period 2.0): 4.3 mean/week
Frequency of spontaneous bowel movements per week ([2]; subject 3, 20 mg BID switched to 10 mg 2 times daily after 1 week, administration week 3, observation period 2.2): 6.0 time/week
Bristol Stool Form Scale ([2]; subject 3, 20 mg BID switched to 10 mg 2 times daily after 1 week, administration week 4, observation period 2.0): 4.2 mean/week
Frequency of spontaneous bowel movements per week ([2]; subject 3, 20 mg BID switched to 10 mg 2 times daily after 1 week, administration week 4, observation period 2.2): 5.0 time/week
Bristol Stool Form Scale ([2]; subject 3, 20 mg BID, administration week 1, observation period 2.0): 5.9 mean/week
Frequency of spontaneous bowel movements per week ([2]; subject 3, 20 mg BID, administration week 1, observation period 2.2): 21.0 time/week
Stool form (Bristol Stool Form Scale) (healthy adult males [3]; 80 mg and 160 mg groups): type 6 or 7 for many subjects
Frequency of bowel movement after the administration, Mean (healthy adult males [3]; single oral dose 2 mg (free drug equivalent)): 1.7 time
Frequency of bowel movement after the administration, Mean (healthy adult males [3]; single oral dose 5 mg (free drug equivalent)): 1.0 time
Frequency of bowel movement after the administration, Mean (healthy adult males [3]; single oral dose 10 mg (free drug equivalent)): 2.2 time
Frequency of bowel movement after the administration, Mean (healthy adult males [3]; single oral dose 20 mg (free drug equivalent)): 2.2 time
Frequency of bowel movement after the administration, Mean (healthy adult males [3]; single oral dose 40 mg (free drug equivalent)): 1.8 time
Frequency of bowel movement after the administration, Mean (healthy adult males [3]; single oral dose 80 mg (free drug equivalent)): 4.8 time
Frequency of bowel movement after the administration, Mean (healthy adult males [3]; single oral dose 160 mg (free drug equivalent)): 5.2 time
